Measured values reported in the NIST ThermoML archive (doi:10.1021/je0342825).

Test: xn = mol fraction of the nth substance listed
Settings: 101.3 kPa, Liquid

CCO [ethanol] + CC(=O)O
x2 = 0
Settings	mass density [kg/m3]	speed of sound [m/s]	viscosity [mPa·s]
293.15 K	789.75	1162	1.187
298.15 K	785.46	1145	1.082
303.15 K	781.15	1128	0.987

CC(=O)O [acetic acid] + CCOC(C)=O
Settings	mass density, 293.15 K [kg/m3]	mass density, 298.15 K [kg/m3]	mass density, 303.15 K [kg/m3]	speed of sound, 293.15 K [m/s]	speed of sound, 298.15 K [m/s]	speed of sound, 303.15 K [m/s]	viscosity, 293.15 K [mPa·s]	viscosity, 298.15 K [mPa·s]	viscosity, 303.15 K [mPa·s]
x1 = 0.0697	907.35	901.3	895.2	1165	1143	1121	0.473	0.446	0.422
x1 = 0.0988	910.56	904.53	898.44	1166	1144	1122	0.485	0.458	0.433
x1 = 0.196	920.61	914.62	908.59	1166	1144	1123	0.523	0.493	0.465
x1 = 0.2944	931.46	925.5	919.49	1165	1144	1123	0.561	0.528	0.498
x1 = 0.3968	943.68	937.74	931.77	1165	1143	1123	0.617	0.577	0.541
x1 = 0.5007	957.31	951.4	945.46	1163	1142	1122	0.668	0.627	0.589
x1 = 0.5967	971.28	965.4	959.5	1162	1141	1121	0.731	0.684	0.642
x1 = 0.7	987.79	981.94	976.09	1159	1140	1120	0.817	0.762	0.714
x1 = 0.7989	1005.47	999.66	993.85	1157	1137	1119	0.912	0.848	0.792
x1 = 0.8993	1025.8	1020.06	1014.32	1153	1135	1117	1.052	0.975	0.91
x1 = 0.9493	1037.09	1031.4	1025.69	1152	1134	1116	1.113	1.031	0.958
x1 = 1	1049.3	1043.65	1038	1149	1132	1115	1.211	1.115	1.034
